Values of other authors in US20070149500A1, “Compounds, compositions, and methods” (priority 2003, published 2007).

Test system: A549 cells
Conditions: data provided by National Cancer Institute

O=c1[nH]cc(F)c(=O)[nH]1 [5-fluorouracil]
GI50: 1000 nM

NC(=O)NO [hydroxyurea]
GI50: 500000 nM

CC(=O)O[C@H]1C(=O)[C@@]2(C)[C@H]([C@H](OC(=O)c3ccccc3)[C@]3(O)C[C@H](OC(=O)[C@H](O)[C@@H](NC(=O)c4ccccc4)c4ccccc4)C(C)=C1C3(C)C)[C@]1(OC(C)=O)CO[C@@H]1C[C@@H]2O [paclitaxel]
GI50: 4 nM
